Measurements published in publication PMC8222254, “Self-assembly of an anion receptor with metal-dependent kinase inhibition and potent in vitro anti-cancer properties” (Nature Communications, 2021).
Where “and” joins values, the source holds several entries; their conditions need not be identical. Identical values can stand only once. Like-named read-outs stand apart in the source and are kept apart here.

Legend:
Experiment in all cases: Chemosensitivity, 96 h continuous exposure, MTT assay
Type in all cases: cell-based, human
HT-29 = tested on: HT-29
Procedure, shortened: (§1)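 Cells seeded at 2 × 10^3/well (GBM1 3 × 10^3/well) and left overnight at 37 °C, then exposed continuously for 96 h to a range of compound concentrations (final DMSO 0.2%). Viability read by MTT, absorbance at 540 nm; IC50 taken from dose-response curves as concentration reducing cell growth by 50%.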

PSN1 = tested on: PSN1
Procedure, shortened: as §1

BxPC3 = tested on: BxPC3
Procedure, shortened: as §1

HCT116 p53+/+ = tested on: HCT116 p53+/+
Procedure, shortened: as §1

HCT116 p53-/- = tested on: HCT116 p53-/-
Procedure, shortened: as §1

A549 = tested on: A549
Procedure, shortened: as §1

DLD-1 = tested on: DLD-1
Procedure, shortened: as §1

Structure (SMILES): O=P(O)(O)Oc1ccccc1.[Zn+2].[Zn+2].[Zn+2].c1ccc(-c2csc(NCCN(CCNc3nc(-c4ccccn4)cs3)CCNc3nc(-c4ccccn4)cs3)n2)nc1.c1ccc(-c2csc(NCCN(CCNc3nc(-c4ccccn4)cs3)CCNc3nc(-c4ccccn4)cs3)n2)nc1 [[L2Zn3(O3POPh)]4+]
- IC50 (HT-29; HT29, mean of replicates, read-out: Mean IC50): 379 nM
- IC50 (HT-29; HT29, read-out: Mean IC50 values): 379 nM
- IC50 (HT-29; HT-29, single replicate, read-out: IC50 values for each replicate): 733 nM and 271 nM and 247 nM and 265 nM
- Selectivity index (ARPE19) (HT-29; IC50 ARPE-19 / IC50 HT29): 607.52
- Selectivity index (MCF10A) (HT-29; IC50 MCF10A / IC50 HT29): 138.13
- Relative potency (+ anion to no anion), Ratio + anion:no anion (HT-29; ratio of IC50, HT29): 2.24
- Selectivity indices relative to ARPE-19, Ratio + anion:no anion (HT-29; ratio of SI (ARPE-19), HT29): 0.653
- Selectivity indices relative to MCF10A, Ratio + anion:no anion (HT-29; ratio of SI (MCF 10A), HT29): 0.144
- Selectivity index (ARPE19) (PSN1; IC50 ARPE-19 / IC50 PSN1): 1338.66
- Selectivity index (MCF10A) (PSN1; IC50 MCF10A / IC50 PSN1): 304.38
- IC50 (PSN1; PSN1, mean of replicates, read-out: Mean IC50): 172 nM
- IC50 (PSN1; PSN1, read-out: Mean IC50 values): 172 nM
- IC50 (PSN1; PSN1, single replicate, read-out: IC50 values for each replicate): 90 nM and 171 nM and 256 nM
- activity relative to [L2Zn3(PO4)]3+ or [L2Zn3]6+ (PSN1; PSN1 cell line, anion pre-encapsulated): significantly more active
- Relative potency (+ anion to no anion), Ratio + anion:no anion (PSN1; ratio of IC50, PSN1): 0.04
- Selectivity indices relative to ARPE-19, Ratio + anion:no anion (PSN1; ratio of SI (ARPE-19), PSN1): 37.826
- Selectivity indices relative to MCF10A, Ratio + anion:no anion (PSN1; ratio of SI (MCF 10A), PSN1): 8.367
- IC50 (BxPC3; BXPC3, mean of replicates, read-out: Mean IC50): 1140 nM
- IC50 (BxPC3; BXPC3, read-out: Mean IC50 values): 1140 nM
- Selectivity index (ARPE19) (BxPC3; IC50 ARPE-19 / IC50 BXPC3): 202.86
- Selectivity index (MCF10A) (BxPC3; IC50 MCF10A / IC50 BXPC3): 46.13
- Relative potency (+ anion to no anion), Ratio + anion:no anion (BxPC3; ratio of IC50, BXPC3): 3.55
- Selectivity indices relative to ARPE-19, Ratio + anion:no anion (BxPC3; ratio of SI (ARPE-19), BXPC3): 0.413
- Selectivity indices relative to MCF10A, Ratio + anion:no anion (BxPC3; ratio of SI (MCF 10A), BXPC3): 0.091
- IC50 (HCT116 p53+/+; HCT116 p53+/+, mean of replicates, read-out: Mean IC50): 64 nM
- IC50 (HCT116 p53+/+; HCT116 p53+/+, read-out: Mean IC50 values): 64 nM
- IC50 (HCT116 p53+/+; HCT116 p53+/+, single replicate, read-out: IC50 values for each replicate): 58 nM and 64 nM and 70 nM
- Selectivity index (ARPE19) (HCT116 p53+/+; IC50 ARPE-19 / IC50 HCT116 p53+/+): 3597.66
- Selectivity index (MCF10A) (HCT116 p53+/+; IC50 MCF10A / IC50 HCT116 p53+/+): 818.02
- Relative potency (+ anion to no anion), Ratio + anion:no anion (HCT116 p53+/+; ratio of IC50, HCT116 p53+/+): 0.14
- Selectivity indices relative to ARPE-19, Ratio + anion:no anion (HCT116 p53+/+; ratio of SI (ARPE-19), HCT116 p53+/+): 10.661
- Selectivity indices relative to MCF10A, Ratio + anion:no anion (HCT116 p53+/+; ratio of SI (MCF 10A), HCT116 p53+/+): 2.358
- IC50 (HCT116 p53-/-; HCT116 p53-/-, mean of replicates, read-out: Mean IC50): 85 nM
- IC50 (HCT116 p53-/-; HCT116 p53-/-, read-out: Mean IC50 values): 85 nM
- IC50 (HCT116 p53-/-; HCT116 p53-/-, single replicate, read-out: IC50 values for each replicate): 155 nM and 65 nM and 36 nM
- Selectivity index (ARPE19) (HCT116 p53-/-; IC50 ARPE-19 / IC50 HCT116 p53-/-): 2708.82
- Selectivity index (MCF10A) (HCT116 p53-/-; IC50 MCF10A / IC50 HCT116 p53-/-): 615.92
- Relative potency (+ anion to no anion), Ratio + anion:no anion (HCT116 p53-/-; ratio of IC50, HCT116 p53-/-): 1.18
- Selectivity indices relative to ARPE-19, Ratio + anion:no anion (HCT116 p53-/-; ratio of SI (ARPE-19), HCT116 p53-/-): 1.240
- Selectivity indices relative to MCF10A, Ratio + anion:no anion (HCT116 p53-/-; ratio of SI (MCF 10A), HCT116 p53-/-): 0.274
- IC50 (A549; A549, mean of replicates, read-out: Mean IC50): 739 nM
- IC50 (A549; A549, read-out: Mean IC50 values): 739 nM
- IC50 (A549; A549, single replicate, read-out: IC50 values for each replicate): 651 nM and 791 nM and 774 nM
- Selectivity index (ARPE19) (A549; IC50 ARPE-19 / IC50 A549): 311.57
- Selectivity index (MCF10A) (A549; IC50 MCF10A / IC50 A549): 70.84
- Relative potency (+ anion to no anion), Ratio + anion:no anion (A549; ratio of IC50, A549): 1.83
- Selectivity indices relative to ARPE-19, Ratio + anion:no anion (A549; ratio of SI (ARPE-19), A549): 0.798
- Selectivity indices relative to MCF10A, Ratio + anion:no anion (A549; ratio of SI (MCF 10A), A549): 0.177
- IC50 (DLD-1; DLD-1, mean of replicates, read-out: Mean IC50): 230 nM
- IC50 (DLD-1; DLD-1, read-out: Mean IC50 values): 230 nM
- Selectivity index (ARPE19) (DLD-1; IC50 ARPE-19 / IC50 DLD-1): 1001.09
- Selectivity index (MCF10A) (DLD-1; IC50 MCF10A / IC50 DLD-1): 227.62
- Relative potency (+ anion to no anion), Ratio + anion:no anion (DLD-1; ratio of IC50, DLD-1): 1.35
- Selectivity indices relative to ARPE-19, Ratio + anion:no anion (DLD-1; ratio of SI (ARPE-19), DLD-1): 1.082
- Selectivity indices relative to MCF10A, Ratio + anion:no anion (DLD-1; ratio of SI (MCF 10A), DLD-1): 0.239
